Assay: xn = mol fraction of the nth substance listed
Conditions: Liquid; for speed of sound: 100 kPa, Linear variable-path acoustic interferometer; for viscosity: Capillary tube (Ostwald / Ubbelohde) method; for mass density: Pycnometric method

CC(=O)c1ccccc1 [acetophenone] + NC=O
298.15 K
Conditions | speed of sound [m/s]
x2 = 0 | 1296.4
x2 = 0.2286 | 1304.8
x2 = 0.4001 | 1323.3
x2 = 0.5334 | 1345.8
x2 = 0.6401 | 1379.3
x2 = 0.7273 | 1413.6
x2 = 0.8001 | 1456.5
x2 = 0.8616 | 1488.4
x2 = 0.9143 | 1527.3
x2 = 0.96 | 1558.9

101.3 kPa
Conditions | mass density, 298.15 K [kg/m3] | mass density, 308.15 K [kg/m3] | mass density, 318.15 K [kg/m3] | viscosity, 298.15 K [mPa·s] | viscosity, 308.15 K [mPa·s] | viscosity, 318.15 K [mPa·s]
x2 = 0 | 1023.1 | 1014.8 | 1007.5 | 1.653 | 1.412 | 1.117
x2 = 0.2286 | 1032.9 | 1024.9 | 1017.5 | 2.234 | 1.762 | 1.377
x2 = 0.4001 | 1042.9 | 1035.1 | 1027.5 | 2.795 | 2.077 | 1.607
x2 = 0.5334 | 1053.1 | 1045.3 | 1037.6 | 3.267 | 2.355 | 1.825
x2 = 0.6401 | 1063.3 | 1055.5 | 1047.7 | 3.596 | 2.587 | 1.988
x2 = 0.7273 | 1073.8 | 1065.8 | 1057.9 | 3.778 | 2.724 | 2.1
x2 = 0.8001 | 1084.4 | 1076.3 | 1068.2 | 3.819 | 2.779 | 2.141
x2 = 0.8616 | 1095.3 | 1087 | 1078.7 | 3.735 | 2.748 | 2.111
x2 = 0.9143 | 1106.4 | 1097.9 | 1089.4 | 3.59 | 2.685 | 2.068
x2 = 0.96 | 1117.7 | 1109.1 | 1100.1 | 3.439 | 2.608 | 2.027

NC=O [formamide] + COCCO
298.15 K
Conditions | speed of sound [m/s]
x1 = 0.1581 | 1353.6
x1 = 0.2969 | 1373.7
x1 = 0.4199 | 1397.5
x1 = 0.5297 | 1423.8
x1 = 0.6282 | 1451.1
x1 = 0.7171 | 1478.3
x1 = 0.7977 | 1506
x1 = 0.8711 | 1533.9
x1 = 0.9383 | 1564.3
x1 = 1 | 1591.3

101.3 kPa
Conditions | mass density, 298.15 K [kg/m3] | mass density, 308.15 K [kg/m3] | mass density, 318.15 K [kg/m3] | viscosity, 298.15 K [mPa·s] | viscosity, 308.15 K [mPa·s] | viscosity, 318.15 K [mPa·s]
x1 = 0.1581 | 977 | 969.1 | 963.5 | 1.912 | 1.515 | 1.225
x1 = 0.2969 | 994.2 | 986.2 | 980.3 | 2.291 | 1.759 | 1.394
x1 = 0.4199 | 1010.9 | 1002.8 | 996.5 | 2.659 | 1.997 | 1.561
x1 = 0.5297 | 1027.6 | 1019.4 | 1012.8 | 2.963 | 2.206 | 1.709
x1 = 0.6282 | 1044.1 | 1035.9 | 1029.1 | 3.173 | 2.367 | 1.831
x1 = 0.7171 | 1060.2 | 1052.3 | 1045.3 | 3.331 | 2.485 | 1.929
x1 = 0.7977 | 1076.7 | 1068.7 | 1061.5 | 3.395 | 2.541 | 1.978
x1 = 0.8711 | 1093.8 | 1085.7 | 1078.1 | 3.399 | 2.562 | 2.016
x1 = 0.9383 | 1111.1 | 1102.9 | 1094.6 | 3.348 | 2.55 | 2.003
x1 = 1 | 1129.2 | 1120.5 | 1111.1 | 3.302 | 2.542 | 2.001

COCCOC [1,2-dimethoxyethane] + NC=O
298.15 K
Conditions | speed of sound [m/s]
x2 = 0 | 1146.2
x2 = 0.1819 | 1200.3
x2 = 0.3334 | 1254.3
x2 = 0.4616 | 1306.2
x2 = 0.5715 | 1355
x2 = 0.6668 | 1399.9
x2 = 0.7501 | 1441.9
x2 = 0.8236 | 1480.5
x2 = 0.8889 | 1518.5
x2 = 0.9474 | 1556.1

Conditions | mass density, 298.15 K [kg/m3] | mass density, 308.15 K [kg/m3] | mass density, 318.15 K [kg/m3] | viscosity, 298.15 K [mPa·s] | viscosity, 308.15 K [mPa·s] | viscosity, 318.15 K [mPa·s]
101 kPa, x2 = 0 | 861.5 | 850.7 | 839.6 | – | – | –
101 kPa, x2 = 0.1819 | 893.1 | 883.5 | 874.6 | – | – | –
101 kPa, x2 = 0.3334 | 920.1 | 910.4 | 902.6 | – | – | –
101 kPa, x2 = 0.4616 | 946 | 936.3 | 929.4 | – | – | –
101 kPa, x2 = 0.5715 | 971.8 | 962.3 | 955.9 | – | – | –
101 kPa, x2 = 0.6668 | 997.3 | 988.5 | 982.2 | – | – | –
101 kPa, x2 = 0.7501 | 1022.2 | 1013.6 | 1007.5 | – | – | –
101 kPa, x2 = 0.8236 | 1048.3 | 1039.4 | 1033.3 | – | – | –
101 kPa, x2 = 0.8889 | 1073.7 | 1065.7 | 1059.2 | – | – | –
101 kPa, x2 = 0.9474 | 1100.3 | 1092.7 | 1085.5 | – | – | –
101.3 kPa, x2 = 0 | – | – | – | 0.409 | 0.366 | 0.33
101.3 kPa, x2 = 0.1819 | – | – | – | 0.603 | 0.522 | 0.459
101.3 kPa, x2 = 0.3334 | – | – | – | 0.848 | 0.713 | 0.609
101.3 kPa, x2 = 0.4616 | – | – | – | 1.164 | 0.952 | 0.785
101.3 kPa, x2 = 0.5715 | – | – | – | 1.545 | 1.243 | 0.994
101.3 kPa, x2 = 0.6668 | – | – | – | 1.925 | 1.536 | 1.218
101.3 kPa, x2 = 0.7501 | – | – | – | 2.296 | 1.806 | 1.427
101.3 kPa, x2 = 0.8236 | – | – | – | 2.627 | 2.045 | 1.614
101.3 kPa, x2 = 0.8889 | – | – | – | 2.899 | 2.243 | 1.775
101.3 kPa, x2 = 0.9474 | – | – | – | 3.12 | 2.408 | 1.903

— the NIST ThermoML archive (doi:10.1021/je700026d)
